Test results taken from patent US20050239656A1, “Pyridine compounds or salts thereof and herbicides containing the same” (priority 2002, published 2005).

System: velvetleaf
Assay: Test Example 2: soil surface treatment, upland pot test
Type: in vivo, Abutilon theophrasti MEDIC.
Details: active ingredient 500 g/ha, observed 20th to 28th day
Summary of the method: (§1)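 A pre-emergence soil application: formulated compound at a predetermined active-ingredient dose, diluted in water to 1,500 L/ha, sprayed on upland soil a day after seeding in 1/170,000 ha pots; growth control rated visually, 0 (untreated level) to 100 (kill), at 20–28 days.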

Row | SMILES | Growth controlling degree (%) Velvetleaf
1 | CC(C)C(c1cnccc1Cl)N(C)C(=O)Cc1ccc(C(F)(F)F)cc1 (stereo not shown) [I-69] | 20%

System: corn
Assay: Test Example 1: foliage treatment, upland pot test
Type: in vivo, Zea mays L.
Details: crop, active ingredient 500 g/ha, observed 18th to 23rd day, 0 = non-treated, 100 = complete kill
Summary of the method: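 Corn seeds were sown in upland field soil held in a 1/170,000 ha pot and grown to the 2.1 to 3.2 leaf stage. A wettable powder or emulsifiable concentrate of the test compound was diluted with water at 500 L/ha, given 0.1% (v/v) agricultural spreader, and sprayed onto the foliage with a small sprayer. Growth controlling degree (%) was scored visually 18th to 23rd days later, from 0 (non-treated) to 100 (complete kill).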

Row | SMILES | Growth controlling degree (%) Corn
2 | CC(C)C(c1cnccc1Cl)N(C)C(=O)Cc1ccc(C(F)(F)F)cc1 (stereo not shown) [I-69] | 60%

System: rice
Assay: Test Example 2: soil surface treatment, upland pot test
Type: in vivo, Oryza sativa L.
Details: active ingredient 500 g/ha, observed 20th to 28th day
Summary of the method: as §1

Row | SMILES | Growth controlling degree (%) Rice
3 | CC(C)C(c1cnccc1Cl)N(C)C(=O)Cc1ccc(C(F)(F)F)cc1 (stereo not shown) [I-69] | 10%

System: barnyardgrass
Assay: Test Example 1: foliage treatment, upland pot test
Type: in vivo, Echinochloa crus-galli L.
Details: active ingredient 500 g/ha, observed 18th to 23rd day, 0 = non-treated, 100 = complete kill
Summary of the method: (§2)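 Upland pot test, foliar. Soybean 0.1–0.4 / wheat 1.3–2.4 / rice 1.2–2.6 / barnyardgrass 1.3–2.8 leaf stage at spraying; 500 L/ha carrier, 0.1% (v/v) spreader. Visual % control, 0 untreated to 100 dead, days 18–23.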

Row | SMILES | Growth controlling degree (%) Barnyardgrass
4 | CC(C)C(c1cnccc1Cl)N(C)C(=O)Cc1ccc(C(F)(F)F)cc1 (stereo not shown) [I-69] | 10%

System: soybean
Assay: Test Example 2: soil surface treatment, upland pot test
Type: in vivo, Glycine max Merr.
Details: active ingredient 500 g/ha, observed 20th to 28th day
Summary of the method: as §1

Row | SMILES | Growth controlling degree (%) Soyabean
5 | CC(C)C(c1cnccc1Cl)N(C)C(=O)Cc1ccc(C(F)(F)F)cc1 (stereo not shown) [I-69] | 40%

System: redroot pigweed
Assay: Test Example 1: foliage treatment, upland pot test
Type: in vivo, Amaranthus retroflexus L.
Details: active ingredient 500 g/ha, observed 18th to 23rd day, 0 = non-treated, 100 = complete kill

Row | SMILES | Growth controlling degree (%) Redroot pigweed
6 | CC(C)C(c1cnccc1Cl)N(C)C(=O)Cc1ccc(C(F)(F)F)cc1 (stereo not shown) [I-69] | 70%

System: crabgrass
Assay: Test Example 1: foliage treatment, upland pot test
Type: in vivo, Digitaria sanguinalis L.
Details: active ingredient 500 g/ha, observed 18th to 23rd day, 0 = non-treated, 100 = complete kill

Row | SMILES | Growth controlling degree (%) Crabgrass
7 | CC(C)C(c1cnccc1Cl)N(C)C(=O)Cc1ccc(C(F)(F)F)cc1 (stereo not shown) [I-69] | 90%

System: velvetleaf
Assay: Test Example 1: foliage treatment, upland pot test
Type: in vivo, Abutilon theophrasti MEDIC.
Details: active ingredient 500 g/ha, observed 18th to 23rd day, 0 = non-treated, 100 = complete kill

Row | SMILES | Growth controlling degree (%) Velvetleaf
8 | CC(C)C(c1cnccc1Cl)N(C)C(=O)Cc1ccc(C(F)(F)F)cc1 (stereo not shown) [I-69] | 95%

System: crabgrass
Assay: Test Example 2: soil surface treatment, upland pot test
Type: in vivo, Digitaria sanguinalis L.
Details: active ingredient 500 g/ha, observed 20th to 28th day
Summary of the method: as §1

Row | SMILES | Growth controlling degree (%) Crabgrass
9 | CC(C)C(c1cnccc1Cl)N(C)C(=O)Cc1ccc(C(F)(F)F)cc1 (stereo not shown) [I-69] | 98%

System: soybean
Assay: Test Example 1: foliage treatment, upland pot test
Type: in vivo, Glycine max Merr.
Details: crop, active ingredient 500 g/ha, observed 18th to 23rd day, 0 = non-treated, 100 = complete kill
Summary of the method: as §2

Row | SMILES | Growth controlling degree (%) Soybean
10 | CC(C)C(c1cnccc1Cl)N(C)C(=O)Cc1ccc(C(F)(F)F)cc1 (stereo not shown) [I-69] | 60%

System: green foxtail
Assay: Test Example 2: soil surface treatment, upland pot test
Type: in vivo, Setaria viridis L.
Details: active ingredient 500 g/ha, observed 20th to 28th day
Summary of the method: as §1

Row | SMILES | Growth controlling degree (%) Green foxtail
11 | CC(C)C(c1cnccc1Cl)N(C)C(=O)Cc1ccc(C(F)(F)F)cc1 (stereo not shown) [I-69] | 85%

System: prickly sida
Assay: Test Example 1: foliage treatment, upland pot test
Type: in vivo, Sida spinosa L.
Details: active ingredient 500 g/ha, observed 18th to 23rd day, 0 = non-treated, 100 = complete kill

Row | SMILES | Growth controlling degree (%) Prickly sida
12 | CC(C)C(c1cnccc1Cl)N(C)C(=O)Cc1ccc(C(F)(F)F)cc1 (stereo not shown) [I-69] | 80%

System: barnyardgrass
Assay: Test Example 3: paddy pot test, application under submerged conditions
Type: in vivo, Echinochloa crus-galli L.
Details: active ingredient 125 g/ha; submerged application at 0.5 leaf stage; visually observed 14 days after application; 0 = non-treated, 100 = complete kill
Summary of the method: (§3)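 Barnyardgrass and japanese bulrush sown in flooded paddy soil in greenhouse pots, japanese ribbon wapato tubers planted 1–2 days later; water depth kept at 3–4 cm. Diluted wettable powder or emulsifiable concentrate applied into water at 0.5-leaf or primary-leaf stage at set active-ingredient doses. Growth control scored visually at 14 days, 0 (untreated) to 100% (complete kill).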

Row | SMILES | Growth controlling degree (%) Barnyardgrass
13 | CC(C)C(c1cnccc1Cl)N(C)C(=O)Cc1ccc(C(F)(F)F)cc1 (stereo not shown) [I-69] | 95%

System: corn
Assay: Test Example 2: soil surface treatment, upland pot test
Type: in vivo, Zea mays L.
Details: active ingredient 500 g/ha, observed 20th to 28th day
Summary of the method: as §1

Row | SMILES | Growth controlling degree (%) Corn
14 | CC(C)C(c1cnccc1Cl)N(C)C(=O)Cc1ccc(C(F)(F)F)cc1 (stereo not shown) [I-69] | 20%

System: redroot pigweed
Assay: as above
Type: in vivo, Amaranthus retroflexus L.
Details: active ingredient 500 g/ha, observed 20th to 28th day
Summary of the method: as §1

Row | SMILES | Growth controlling degree (%) Redroot pigweed
15 | CC(C)C(c1cnccc1Cl)N(C)C(=O)Cc1ccc(C(F)(F)F)cc1 (stereo not shown) [I-69] | 50%

System: green foxtail
Assay: Test Example 1: foliage treatment, upland pot test
Type: in vivo, Setaria viridis L.
Details: active ingredient 500 g/ha, observed 18th to 23rd day, 0 = non-treated, 100 = complete kill

Row | SMILES | Growth controlling degree (%) Green foxtail
16 | CC(C)C(c1cnccc1Cl)N(C)C(=O)Cc1ccc(C(F)(F)F)cc1 (stereo not shown) [I-69] | 30%

System: rice (var. Nihonbare)
Assay: Test Example 3: paddy pot test, transplanted rice
Type: in vivo, Oryza sativa L.
Details: active ingredient 125 g/ha, applied 4th day after transplantation, visually observed 21st day after application, 0 = non-treated, 100 = complete kill
Summary of the method: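 Rice (var. Nihonbare) at 2 leaf stage transplanted 3 cm deep into puddled paddy soil under 3–4 cm flooding; on day 4 after transplanting, diluted wettable powder or emulsifiable concentrate applied by pipette under submerged conditions at a set active-ingredient dose. Growth scored visually 21 days after application, 0 (untreated) to 100 (complete kill) %.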

Row | SMILES | Growth controlling degree (%) Rice
17 | CC(C)C(c1cnccc1Cl)N(C)C(=O)Cc1ccc(C(F)(F)F)cc1 (stereo not shown) [I-69] | 0%

System: japanese bulrush
Assay: Test Example 3: paddy pot test, application under submerged conditions
Type: in vivo, Scirpus juncoides
Details: active ingredient 125 g/ha; submerged application at 0.5 leaf stage; visually observed 14 days after application; 0 = non-treated, 100 = complete kill
Summary of the method: as §3

Row | SMILES | Growth controlling degree (%) Japanese bulrush
18 | CC(C)C(c1cnccc1Cl)N(C)C(=O)Cc1ccc(C(F)(F)F)cc1 (stereo not shown) [I-69] | 70%

System: prickly sida
Assay: Test Example 2: soil surface treatment, upland pot test
Type: in vivo, Sida spinosa L.
Details: active ingredient 500 g/ha, observed 20th to 28th day
Summary of the method: as §1

Row | SMILES | Growth controlling degree (%) Prickly sida
19 | CC(C)C(c1cnccc1Cl)N(C)C(=O)Cc1ccc(C(F)(F)F)cc1 (stereo not shown) [I-69] | 80%

System: japanese ribbon wapato
Assay: Test Example 3: paddy pot test, application under submerged conditions
Type: in vivo, Sagittaria pygniaea
Details: active ingredient 125 g/ha; submerged application at primary leaf stage; visually observed 14 days after application; 0 = non-treated, 100 = complete kill
Summary of the method: as §3

Row | SMILES | Growth controlling degree (%) Japanese ribbon wapato
20 | CC(C)C(c1cnccc1Cl)N(C)C(=O)Cc1ccc(C(F)(F)F)cc1 (stereo not shown) [I-69] | 40%

System: rice
Assay: Test Example 1: foliage treatment, upland pot test
Type: in vivo, Oryza sativa L.
Details: crop, active ingredient 500 g/ha, observed 18th to 23rd day, 0 = non-treated, 100 = complete kill
Summary of the method: as §2

Row | SMILES | Growth controlling degree (%) Rice
21 | CC(C)C(c1cnccc1Cl)N(C)C(=O)Cc1ccc(C(F)(F)F)cc1 (stereo not shown) [I-69] | 10%

System: barnyardgrass
Assay: Test Example 2: soil surface treatment, upland pot test
Type: in vivo, Echinochloa crus-galli L.
Details: active ingredient 500 g/ha, observed 20th to 28th day
Summary of the method: as §1

Row | SMILES | Growth controlling degree (%) Barnyardgrass
22 | CC(C)C(c1cnccc1Cl)N(C)C(=O)Cc1ccc(C(F)(F)F)cc1 (stereo not shown) [I-69] | 95%
